By IC50 is commonly meant the concentration that gives 50% inhibition. The EC50 is the concentration needed to bring the measured effect to its halfway point.

The target of experiment [1] is T1, Sphingosine 1-phosphate receptor 1 (Homo sapiens, UniProt P21453). Kind of experiment: Displacement of [33P]S1P from human S1P1 receptor expressed in HEK293T cells after 1 hr by liquid scintillation counting analysis. It counts as cell-based, HEK-293T.
For experiment [2], the target named is T2, Sphingosine 1-phosphate receptor 3 (Homo sapiens, UniProt Q99500). Kind of experiment: Displacement of [33P]S1P from human S1P3 receptor expressed in HEK293T cells after 1 hr by liquid scintillation counting analysis. Type of experiment: cell-based, HEK-293T.
The test system of experiment [3] is Mus musculus. Kind of experiment: Immunomodulatory activity in C57Bl/6 mouse assessed as induction of lymphopenia at 10 mg/kg, po measured after 6 hrs. Type of experiment: functional.
Experiment [4] concerns the target T2, Sphingosine 1-phosphate receptor 3. Kind of experiment: Agonist activity at human S1P3 receptor expressed in HEK293T cells assessed as stimulation of [35S]GTPgammaS binding. Type of experiment: functional, cell-based, HEK-293T. In general terms: GTPγS resists hydrolysis and so accumulates on activated G proteins.
The species named for experiment [5] is Homo sapiens. Kind of experiment: Selectivity index, ratio of EC50 for human S1P3 to EC50 for human S1P1.
For experiment [6], the target named is T1, Sphingosine 1-phosphate receptor 1. Kind of experiment: Agonist activity at human S1P1 receptor expressed in HEK293T cells assessed as stimulation of [35S]GTPgammaS binding. Type of experiment: functional, cell-based, HEK-293T.
The test system of experiment [7] is Mus musculus. Kind of experiment: Immunomodulatory activity in C57Bl/6 mouse assessed as induction of lymphopenia at 1 mg/kg, po measured after 6 hrs. Type of experiment: functional.
For experiment [8], the species on record is Homo sapiens. Kind of experiment: Selectivity index, ratio of IC50 for human S1P3 to IC50 for human S1P1.
The subject of experiment [9] is Mus musculus. Kind of experiment: Immunomodulatory activity in C57Bl/6 mouse assessed as induction of lymphopenia at 20 mg/kg, iv measured after 6 hrs. Type of experiment: functional.

T2 sequence (Q99500 whole entry): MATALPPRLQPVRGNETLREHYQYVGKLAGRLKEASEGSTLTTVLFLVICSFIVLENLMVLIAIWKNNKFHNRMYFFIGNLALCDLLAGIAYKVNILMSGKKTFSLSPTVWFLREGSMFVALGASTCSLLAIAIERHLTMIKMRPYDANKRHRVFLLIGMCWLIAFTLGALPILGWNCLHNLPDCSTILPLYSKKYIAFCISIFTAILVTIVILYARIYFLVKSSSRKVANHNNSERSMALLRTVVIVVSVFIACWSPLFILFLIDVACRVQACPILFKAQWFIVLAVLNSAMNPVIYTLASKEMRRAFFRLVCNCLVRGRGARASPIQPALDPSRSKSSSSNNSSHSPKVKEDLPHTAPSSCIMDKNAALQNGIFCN
T1 sequence (P21453 whole entry): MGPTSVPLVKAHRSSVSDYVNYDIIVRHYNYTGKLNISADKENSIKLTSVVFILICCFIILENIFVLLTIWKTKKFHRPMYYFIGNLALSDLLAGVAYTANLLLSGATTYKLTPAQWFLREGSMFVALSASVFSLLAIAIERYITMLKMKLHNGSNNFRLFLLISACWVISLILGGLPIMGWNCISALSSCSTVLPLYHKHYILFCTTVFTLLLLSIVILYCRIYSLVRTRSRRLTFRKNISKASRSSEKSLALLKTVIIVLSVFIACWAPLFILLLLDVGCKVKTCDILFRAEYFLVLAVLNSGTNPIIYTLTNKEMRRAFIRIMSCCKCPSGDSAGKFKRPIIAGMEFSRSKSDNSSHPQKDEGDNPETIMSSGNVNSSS

Consider `CCCCCCCCOc1ccc(NC(=O)[C@@](C)(N)CCC(=O)O)cc1`, for which the figures for the IC50 in experiment [1] and in experiment [2] were 77 nM and 10000 nM, respectively.

In the case of `CCCCCCCCOc1ccc(NC(=O)[C@@H](N)CCC(=O)O)cc1`, the IC50 in experiment [1] was 92 nM; in [2], 10000 nM. In the experiment with Mus musculus [3], the Activity is recorded as 44%.

In the case of `N[C@@H](CC(=O)O)c1nc(-c2ccc(OCc3ccc(-c4ccccc4)cc3)c(C(F)(F)F)c2)c[nH]1`, the EC50 in [4] is greater than 3000 nM; in experiment [6], 161 nM. For the same compound, the Ratio EC50 in the experiment filed under Homo sapiens [5] was greater than 18.6. For the same compound, the IC50 in [1] was 17 nM; in [2], greater than 10000 nM.

In the case of `CCCCCCCCOc1ccc(NC(=O)[C@@](C)(N)CC(=O)O)cc1C(F)(F)F`, the figures for the EC50 in experiment [4] and in [6] were greater than 3000 nM and 135 nM, respectively. Moreover, the Ratio EC50 in the experiment filed under Homo sapiens [5] was greater than 22. Also, the figures for the IC50 in experiment [1] and in [2] were 95 nM and greater than 10000 nM, respectively. Further, the Activity in the experiment with Mus musculus [3] came to 24%.

Take `C[C@](N)(CC(=O)O)c1nc(-c2ccc(OCc3ccc(-c4ccccc4)cc3)c(C(F)(F)F)c2)c[nH]1`: the EC50 in [4] is greater than 3000 nM; in experiment [6], 700 nM. For the same compound, the Ratio EC50 in the experiment filed under Homo sapiens [5] was greater than 4. For the same compound, the IC50 in [1] is 82 nM; in experiment [2], greater than 10000 nM.

With `CCCCCCCCc1ccc(NC(=O)[C@@](C)(N)CC(=O)O)cc1C(F)(F)F`, the IC50 in experiment [1] was 370 nM; in experiment [2] it was greater than 10000 nM.

As for `O=C(O)CCc1nc(-c2ccc(OCc3ccc(-c4ccccc4)cc3)c(C(F)(F)F)c2)c[nH]1`, the results for the IC50 in [1] and in experiment [2] were 3000 nM and greater than 10000 nM, respectively.

On to `CCCCCCCCc1ccc(CCC(N)(CO)CO)cc1` [FINGOLIMOD], for which the Activity in the experiment on Mus musculus [7] stood at 80%.

As for `CCCCCCCCOc1ccc(NC(=O)[C@@H](N)CC(=O)O)cc1`, the EC50 in experiment [4] came to 1800 nM; in experiment [6], 164 nM. In the experiment filed under Homo sapiens [8], the Ratio IC50 was found to be 73. Besides, in the experiment listed under Homo sapiens [5], the Ratio EC50 was 11. In addition, the IC50 in [1] is 14.4 nM; in experiment [2] it was 1050 nM. For the same compound, the Activity in the experiment with Mus musculus [3] is 57%.

As to `CCCCCCCCOc1ccc(NC(=O)[C@@H](N)CC(=O)O)cc1C(F)(F)F`, the EC50 in [4] was greater than 3000 nM; in [6] it was 231 nM. In addition, the Ratio EC50 in the experiment filed under Homo sapiens [5] is greater than 13. Besides, the IC50 is 53 nM in [1] and greater than 10000 nM in experiment [2]. Besides, the results for the Activity in the experiment with Mus musculus [9] and with Mus musculus [3] were 60% and 33%, respectively.

Turning to `CCCCCCCCOc1ccc(NC(=O)[C@@](C)(N)/C=C/C(=O)O)cc1`, the figures for the IC50 in [1] and in [2] were 74 nM and 10000 nM, respectively. For the same compound, in the experiment on Mus musculus [3], the Activity was found to be 25%.

The record behind these values is ChEMBL document CHEMBL2311443, “Exploring amino acids derivatives as potent, selective, and direct agonists of sphingosine-1-phosphate receptor subtype-1” (Bioorg Med Chem Lett, 2013).
